Measured values taken from US8722364B2, “Method for increasing microbial catalase production” (Jiangnan University, priority 2011, dated 2014).

Columns and labels:
[1] = system: Bacillus sp. WSHDZ-01; assay: Fermentation of Bacillus sp. WSHDZ-01 with sodium hexametaphosphate added; extracellular catalase activity of the broth by catalase assay (Aebi); type: cell-based
Protocol: Fermentation Culture: the fermentation process was performed in a 3 liter (L) stirred fermenter (KFT-3L, Korea) with a working volume of 1.8 L. Above 12-h-old basic flask culture was added at a concentration of 5.0% (v/v) to 1.8 L fermentation medium, and incubated under a stepwise temperature control, in which the temperature was maintained at 37° C. for the first 10 hours, at 35° C. during 10-20 hours, and at 32° C. after 20 hours. The aeration rate was 1.0 (v/v/m) (volume of air per volume of culture per minute). The shaking speed was 400 rpm. The total fermentation period was 48 to 53 hours. Proteinase inhibitors can be added during this fermentation process as described below.
(§1) Catalase activity was measured using the method described by Aebi (Aebi HE. Catalase in vitro. Method Enzymol 1984; 105:121-6). Total reaction volume is 3 ml. 0.1 ml enzyme solution was added to 2.9 ml KH2PO4—K2HPO4 buffer (pH 7.0, 10 mM KH2PO4/50 mM K2HPO4, 0.45 g/L H2O2). Decomposition rate of H2O2 was measured at 240 nm using a UV-Vis spectrophotometer. One unit of catalase activity is defined as the amount of enzyme that decomposes 1 μmol H2O2 per min at pH 7.0, 25° C.
Bacillus sp. WSHDZ-01 with accession number CCTCC NO. M206062 was used to produce catalase. Bacillus sp. WSHDZ-01 grown on a slant culture was inoculated into 50 ml of liquid seed medium in a 250 ml culture flask and cultured at 37° C., 200 rpm for 12-14 hours. 6% above liquid seed culture (v/v) was added to 80 ml basic fermentation culture in a 500 ml culture flask, and incubate at 37° C., 200 rpm, for 36-40 hours.
the fermentation process was performed in a 3 L stirred fermenter (KFT-3L, Korea) with a working volume of 1.8 L. The 12-h-old basic flask culture was added at a concentration of 5.0% (v/v) to 1.8 L fermentation medium, and incubated under a stepwise temperature control, in which the temperature was maintained at 37° C. for the first 10 hours, at 35° C. during 10-20 hours, and at 32° C. after 20 hours. The aeration rate was 1.0 (v/v/m) (volume of air per volume of culture per minute). The shaking speed was 400 rpm. The total fermentation period was 48 to 53 hours.

[2] = system: catalase; assay: Storage stability of unpurified fermentation broth (remaining extracellular catalase activity); parameters: species or system Bacillus sp. WSHDZ-01
Protocol: as §1
The culturing of Bacillus sp. WSHDZ-01 was performed as described under control procedure with one modification, that is, 5 g/L sodium hexametaphosphate was added at 36 hours of fermentation.
After fermentation, unpurified fermentation broth was stored at 25° C. for 12 hours. […] The broth storage stability was improved by 28.3% under the procedure with sodium hexametaphosphate.

[3] = 1 g/L added at 30 hours of fermentation
[4] = 3 g/L added at 36 hours of fermentation
[5] = 5 g/L added at 36 hours of fermentation
[6] = 7 g/L added at 36 hours of fermentation
[7] = 10 g/L added at 40 hours of fermentation

Q: How did the “Extracellular catalase activity of the fermentation broth” value [1, 3] turn out when `O=P1([O-])OP(=O)([O-])OP(=O)([O-])OP(=O)([O-])OP(=O)([O-])OP(=O)([O-])O1.[Na+].[Na+].[Na+].[Na+].[Na+].[Na+]` [sodium hexametaphosphate] was run?
A: Its value is 15700 U/mL.

Q: And the “increase of enzyme activity from that of the control procedure” value (“increase of enzyme activity” for short) [1, 3]?
A: The value was 16.3%.

Q: And the “Extracellular catalase activity of the fermentation broth” value [1, 4]?
A: Its value is 18600 U/mL.

Q: And the “increase of enzyme activity” value [1, 4]?
A: Its value is 37.7%.

Q: What about the “Extracellular catalase activity of the fermentation broth” value [1, 5] of the same compound?
A: Its value is 19200 U/mL.

Q: And the “increase of enzyme activity” value [1, 5]?
A: The value was 42.2%.

Q: And the “Extracellular catalase activity of the fermentation broth” value [1, 6]?
A: The value was 19700 U/mL.

Q: What about the “increase of enzyme activity” value [1, 6] of the same compound?
A: The value was 45.9%.

Q: And the “Extracellular catalase activity of the fermentation broth” value [1, 7]?
A: Its value is 16900 U/mL.

Q: What about the “increase of enzyme activity” value [1, 7] of the same compound?
A: Its value is 25.2%.

Q: And the “percentage of remaining extracellular catalase activity of the stored fermentation broth” value ([2]; 5 g/L added at 36 hours of fermentation, unpurified broth stored at 25° C. for 12 hours)?
A: The value was 84.4%.

Q: What about the “broth storage stability improved” value ([2]; 5 g/L added at 36 hours, stored at 25° C. for 12 hours, versus control culture procedure (56.1%)) of the same compound?
A: The value was 28.3%.
